Experimental findings from paper PMC2792043 (PLoS ONE, 2009) are described below.

The target in assay [1] is NA from influenza PR8 virus (Influenza A virus, UniProt P03468). Description: biochemical.
In assay [2] the test system is influenza A and B viruses. Type of assay: cell-based.

NA from influenza PR8 virus, sequence (P03468 whole entry, looked up): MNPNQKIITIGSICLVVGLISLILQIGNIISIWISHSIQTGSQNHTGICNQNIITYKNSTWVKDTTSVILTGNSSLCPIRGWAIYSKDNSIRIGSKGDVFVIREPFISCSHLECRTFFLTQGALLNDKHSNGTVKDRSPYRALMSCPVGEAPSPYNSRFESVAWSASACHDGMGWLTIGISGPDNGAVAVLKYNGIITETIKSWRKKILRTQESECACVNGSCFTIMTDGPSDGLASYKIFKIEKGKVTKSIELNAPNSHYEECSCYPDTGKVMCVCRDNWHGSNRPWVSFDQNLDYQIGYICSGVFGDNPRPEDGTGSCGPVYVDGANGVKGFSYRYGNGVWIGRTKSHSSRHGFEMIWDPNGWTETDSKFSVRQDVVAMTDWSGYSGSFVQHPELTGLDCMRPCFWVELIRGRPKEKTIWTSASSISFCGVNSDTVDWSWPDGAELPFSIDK

In general, IC50 refers to the concentration that gives 50% inhibition. A low value points to greater potency in that assay. As to `O=C(O)C1=CC(=C(c2ccc(O)c(C(=O)O)c2)c2ccc(O)c(C(=O)O)c2)C=CC1=O` [ATA, Aurintricarboxylic acid], inhibition in assay [1] was half-maximal at 17 µM (IC50). For the same molecule, the “replication after pre-incubation of virus with ATA” value in assay [2] was “inhibited replication of both WSN and H274Y viruses in a dose-responsive fashion”.
